According to ChEMBL document CHEMBL5390284, “Shikimate-Derived Meroterpenoids from the Ascidian-Derived Fungus Amphichorda felina SYSU-MS7908 and Their Anti-Glioma Activity” (J Nat Prod, 2023):
Active and inactive are the calls of the source. The calls are words filed in the database; no cut-off is given here.

Columns and labels:
U-251 [1] = assay: Induction of apoptosis in human U-251 cells assessed as late apoptotic cells at 2 uM incubated for 48 hrs by Annexin V-FITC/PI staining based flow cytometry analysis (reference value: 1.3 +/- 0.6%); format: functional
U-251 [2] = assay: Inhibition of cell invasion in human U-251 cells at 5 to 10 uM incubated for 48 hrs by crystal violet staining based fluorescent microscope analysis; format: functional; details: dose 5-10 µM
T98G [3] = assay: Induction of apoptosis in human T98G cells assessed as total apoptotic cells at 5 uM incubated for 48 hrs by Annexin V-FITC/PI staining based flow cytometry analysis (reference value: 6.4 +/- 0.8 %); format: functional
U-87 MG [4] = assay: Antiproliferative activity against human U-87 MG cells assessed as inhibition of cell growth incubated for 48 hrs by MTT assay; format: functional, cell-based, U-87MG ATCC
T98G [5] = assay: Induction of apoptosis in human T98G cells assessed as late apoptotic cells at 10 uM incubated for 48 hrs by Annexin V-FITC/PI staining based flow cytometry analysis (reference value: 3.7 +/- 0.3 %); format: functional
U-251 [6] = assay: Induction of apoptosis in human U-251 cells assessed as early apoptotic cells at 10 uM incubated for 48 hrs by Annexin V-FITC/PI staining based flow cytometry analysis (reference value: 1.5 +/- 0.4 %); format: functional
U-87 MG [7] = assay: Antiproliferative activity against human U-87 MG cells assessed as inhibition of cell growth at 100 uM incubated for 48 hrs by MTT assay; format: functional, U-87MG ATCC; set-up: scale not given: the % may be the effect or the level left
U-87 MG [8] = assay: Induction of apoptosis in human U-87 MG cells assessed as late apoptotic cells at 5 uM incubated for 48 hrs by Annexin V-FITC/PI staining based flow cytometry analysis (reference value: 11 +/- 1%); format: functional, U-87MG ATCC
U-251 [9] = assay: Induction of apoptosis in human U-251 cells assessed as total apoptotic cells at 10 uM incubated for 48 hrs by Annexin V-FITC/PI staining based flow cytometry analysis (reference value: 2.8 +/- 0.3%); format: functional
U-251 [10] = assay: Induction of apoptosis in human U-251 cells assessed as total apoptotic cells at 5 uM incubated for 48 hrs by Annexin V-FITC/PI staining based flow cytometry analysis (reference value: 2.8 +/- 0.3%); format: functional
U-87 MG [11] = assay: Induction of apoptosis in human U-87 MG cells assessed as early apoptotic cells at 10 uM incubated for 48 hrs by Annexin V-FITC/PI staining based flow cytometry analysis (reference value: 1.1 +/- 0.6 %); format: functional, U-87MG ATCC
U-87 MG [12] = assay: Induction of apoptosis in human U-87 MG cells assessed as total apoptotic cells at 10 uM incubated for 48 hrs by Annexin V-FITC/PI staining based flow cytometry analysis (reference value: 16 +/- 1%); format: functional, U-87MG ATCC
U-87 MG [13] = assay: Induction of apoptosis in human U-87 MG cells assessed as early apoptotic cells at 5 uM incubated for 48 hrs by Annexin V-FITC/PI staining based flow cytometry analysis (reference value: 1.1 +/- 0.6 %); format: functional, U-87MG ATCC
T98G [14] = assay: Induction of apoptosis in human T98G cells assessed as early apoptotic cells at 2 uM incubated for 48 hrs by Annexin V-FITC/PI staining based flow cytometry analysis (reference value: 2.7 +/- 0.5 %); format: functional
T98G [15] = assay: Antiproliferative activity against human T98G cells assessed as inhibition of cell growth incubated for 48 hrs by MTT assay; format: functional, cell-based
T98G [16] = assay: Induction of apoptosis in human T98G cells assessed as total apoptotic cells at 10 uM incubated for 48 hrs by Annexin V-FITC/PI staining based flow cytometry analysis (reference value: 6.4 +/- 0.8 %); format: functional
U-251 [17] = assay: Induction of apoptosis in human U-251 cells assessed as early apoptotic cells at 2 uM incubated for 48 hrs by Annexin V-FITC/PI staining based flow cytometry analysis (reference value: 1.5 +/- 0.4 %); format: functional
U-251 [18] = assay: Induction of apoptosis in human U-251 cells assessed as total apoptotic cells at 2 uM incubated for 48 hrs by Annexin V-FITC/PI staining based flow cytometry analysis (reference value: 2.8 +/- 0.3%); format: functional
T98G [19] = assay: Induction of apoptosis in human T98G cells assessed as total apoptotic cells at 2 uM incubated for 48 hrs by Annexin V-FITC/PI staining based flow cytometry analysis (reference value: 6.4 +/- 0.8 %); format: functional
T98G [20] = assay: Induction of apoptosis in human T98G cells assessed as late apoptotic cells at 2 uM incubated for 48 hrs by Annexin V-FITC/PI staining based flow cytometry analysis (reference value: 3.7 +/- 0.3 %); format: functional
T98G [21] = assay: Induction of apoptosis in human T98G cells assessed as early apoptotic cells at 5 uM incubated for 48 hrs by Annexin V-FITC/PI staining based flow cytometry analysis (reference value: 2.7 +/- 0.5 %); format: functional
T98G [22] = assay: Inhibition of cell invasion in human T98G cells at 5 to 10 uM incubated for 48 hrs by crystal violet staining based fluorescent microscope analysis; format: functional; details: dose 5-10 µM
U-251 [23] = assay: Inhibition of cell migration in human U-251 cells incubated for 48 hrs by inverted optical microscope based wound healing assay; format: functional
U-87 MG [24] = assay: Induction of apoptosis in human U-87 MG cells assessed as total apoptotic cells at 5 uM incubated for 48 hrs by Annexin V-FITC/PI staining based flow cytometry analysis (reference value: 16 +/- 1%); format: functional, U-87MG ATCC
T98G [25] = assay: Induction of apoptosis in human T98G cells assessed as late apoptotic cells at 5 uM incubated for 48 hrs by Annexin V-FITC/PI staining based flow cytometry analysis (reference value: 3.7 +/- 0.3 %); format: functional
U-251 [26] = assay: Induction of apoptosis in human U-251 cells assessed as late apoptotic cells at 10 uM incubated for 48 hrs by Annexin V-FITC/PI staining based flow cytometry analysis (reference value: 1.3 +/- 0.6%); format: functional
T98G [27] = assay: Inhibition of cell migration in human T98G cells incubated for 48 hrs by inverted optical microscope based wound healing assay; format: functional
U-251 [28] = assay: Antiproliferative activity against human U-251 cells assessed as inhibition of cell growth at 100 uM incubated for 48 hrs by MTT assay; format: functional; set-up: scale not given: the % may be the effect or the level left
U-87 MG [29] = assay: Induction of apoptosis in human U-87 MG cells assessed as late apoptotic cells at 10 uM incubated for 48 hrs by Annexin V-FITC/PI staining based flow cytometry analysis (reference value: 11 +/- 1%); format: functional, U-87MG ATCC
U-251 [30] = assay: Antiproliferative activity against human U-251 cells assessed as inhibition of cell growth incubated for 48 hrs by MTT assay; format: functional, cell-based; details: U-251, 48 h
U-87 MG [31] = assay: Induction of apoptosis in human U-87 MG cells assessed as early apoptotic cells at 2 uM incubated for 48 hrs by Annexin V-FITC/PI staining based flow cytometry analysis (reference value: 1.1 +/- 0.6 %); format: functional, U-87MG ATCC
U-251 [32] = assay: Induction of apoptosis in human U-251 cells assessed as late apoptotic cells at 5 uM incubated for 48 hrs by Annexin V-FITC/PI staining based flow cytometry analysis (reference value: 1.3 +/- 0.6%); format: functional
U-87 MG [33] = assay: Inhibition of cell migration in human U-87 MG cells incubated for 48 hrs by inverted optical microscope based wound healing assay; format: functional; details: U-87MG ATCC
U-251 [34] = assay: Induction of apoptosis in human U-251 cells assessed as early apoptotic cells at 5 uM incubated for 48 hrs by Annexin V-FITC/PI staining based flow cytometry analysis (reference value: 1.5 +/- 0.4 %); format: functional
U-87 MG [35] = assay: Induction of apoptosis in human U-87 MG cells assessed as late apoptotic cells at 2 uM incubated for 48 hrs by Annexin V-FITC/PI staining based flow cytometry analysis (reference value: 11 +/- 1%); format: functional, U-87MG ATCC
U-87 MG [36] = assay: Inhibition of cell invasion in human U-87 MG cells at 5 to 10 uM incubated for 48 hrs by crystal violet staining based fluorescent microscope analysis; format: functional; details: U-87MG ATCC, dose 5-10 µM
U-87 MG [37] = assay: Induction of apoptosis in human U-87 MG cells assessed as total apoptotic cells at 2 uM incubated for 48 hrs by Annexin V-FITC/PI staining based flow cytometry analysis (reference value: 16 +/- 1%); format: functional, U-87MG ATCC
T98G [38] = assay: Induction of apoptosis in human T98G cells assessed as early apoptotic cells at 10 uM incubated for 48 hrs by Annexin V-FITC/PI staining based flow cytometry analysis (reference value: 2.7 +/- 0.5 %); format: functional
T98G [39] = assay: Antiproliferative activity against human T98G cells assessed as inhibition of cell growth at 100 uM incubated for 48 hrs by MTT assay; format: functional, cell-based
T98G [40] = assay: Induction of apoptosis in human T98G cells assessed as early apoptotic cells at 450 uM incubated for 48 hrs by Annexin V-FITC/PI staining based flow cytometry analysis (reference value: 2.7 +/- 0.5 %); format: functional
T98G [41] = assay: Induction of apoptosis in human T98G cells assessed as total apoptotic cells at 450 uM incubated for 48 hrs by Annexin V-FITC/PI staining based flow cytometry analysis (reference value: 6.4 +/- 0.8 %); format: functional
U-251 [42] = assay: Induction of apoptosis in human U-251 cells assessed as late apoptotic cells at 450 uM incubated for 48 hrs by Annexin V-FITC/PI staining based flow cytometry analysis (reference value: 1.3 +/- 0.6%); format: functional
U-87 MG [43] = assay: Induction of apoptosis in human U-87 MG cells assessed as late apoptotic cells at 450 uM incubated for 48 hrs by Annexin V-FITC/PI staining based flow cytometry analysis (reference value: 11 +/- 1%); format: functional, U-87MG ATCC
T98G [44] = assay: Induction of apoptosis in human T98G cells assessed as late apoptotic cells at 450 uM incubated for 48 hrs by Annexin V-FITC/PI staining based flow cytometry analysis (reference value: 3.7 +/- 0.3 %); format: functional
U-87 MG [45] = assay: Induction of apoptosis in human U-87 MG cells assessed as early apoptotic cells at 450 uM incubated for 48 hrs by Annexin V-FITC/PI staining based flow cytometry analysis (reference value: 1.1 +/- 0.6 %); format: functional, U-87MG ATCC
U-251 [46] = assay: Induction of apoptosis in human U-251 cells assessed as early apoptotic cells at 450 uM incubated for 48 hrs by Annexin V-FITC/PI staining based flow cytometry analysis (reference value: 1.5 +/- 0.4 %); format: functional
U-251 [47] = assay: Induction of apoptosis in human U-251 cells assessed as total apoptotic cells at 450 uM incubated for 48 hrs by Annexin V-FITC/PI staining based flow cytometry analysis (reference value: 2.8 +/- 0.3%); format: functional
U-87 MG [48] = assay: Induction of apoptosis in human U-87 MG cells assessed as total apoptotic cells at 450 uM incubated for 48 hrs by Annexin V-FITC/PI staining based flow cytometry analysis (reference value: 16 +/- 1%); format: functional, U-87MG ATCC

C=C(C)C#C[C@]12O[C@H]1[C@@H]1OC(C)(C)[C@H](OC(C)=O)C[C@@]13O[C@H]3C2=O
Activity (U-251 [1]): 2% | inhibition (U-251 [2]): Active | Activity (T98G [3]): 7.7% | IC50 (U-87 MG [4]): 6.8 µM | Activity (T98G [5]): 6.5% | Activity (U-251 [6]): 5% | Activity (U-87 MG [7]): >50% | Activity (U-87 MG [8]): 14% | Activity (U-251 [9]): 10% | Activity (U-251 [10]): 9% | Activity (U-87 MG [11]): 17% | Activity (U-87 MG [12]): 84% | Activity (U-87 MG [13]): 16% | Activity (T98G [14]): 1.5% | IC50 (T98G [15]): 13 µM | Activity (T98G [16]): 11% | Activity (U-251 [17]): 1.2% | Activity (U-251 [18]): 3.2% | Activity (T98G [19]): 5.6% | Activity (T98G [20]): 4.1% | Activity (T98G [21]): 2.6% | inhibition (T98G [22]): Active | inhibition (U-251 [23]): Dose-Dependent Effect | Activity (U-87 MG [24]): 30% | Activity (T98G [25]): 5.1% | Activity (U-251 [26]): 5.4% | inhibition (T98G [27]): Dose-Dependent Effect | Activity (U-251 [28]): >50% | Activity (U-87 MG [29]): 67% | IC50 (U-251 [30]): 20 µM | Activity (U-87 MG [31]): 3.6% | Activity (U-251 [32]): 6% | inhibition (U-87 MG [33]): Dose-Dependent Effect | Activity (U-251 [34]): 3.1% | Activity (U-87 MG [35]): 18% | inhibition (U-87 MG [36]): Active | Activity (U-87 MG [37]): 22% | Activity (T98G [38]): 4.8%

CC(=O)O[C@@H]1C[C@]23O[C@H]2C2=C(C(=O)CC(C)(C)O2)[C@@H](O)[C@@H]3OC1(C)C
Activity (U-87 MG [7]; U-87MG ATCC): inactive | Activity (U-251 [28]): inactive | Activity (T98G [39]): inactive

CC(=O)O[C@@H]1C[C@]23O[C@H]2[C@]2(O)CC(C)=CC(=O)C2=C[C@@H]3OC1(C)C
Activity (U-87 MG [7]; U-87MG ATCC): inactive | Activity (U-251 [28]): inactive | Activity (T98G [39]): inactive

Cn1nnc2c(C(N)=O)ncn2c1=O [TEMOZOLOMIDE]
Activity (T98G [40]): 7.5% | Activity (T98G [41]): 18% | Activity (U-251 [42]): 4.6% | IC50 (U-87 MG [4]): 203 µM | Activity (U-87 MG [43]): 11% | IC50 (T98G [15]): 151 µM | Activity (T98G [44]): 9.9% | Activity (U-87 MG [45]): 4.2% | Activity (U-251 [46]): 3.7% | IC50 (U-251 [30]): 189 µM | Activity (U-251 [47]): 8.3% | Activity (U-87 MG [48]): 15%

C=C(C)C#C[C@]12O[C@H]1[C@@H]1OC(C)(C)[C@H](OC(C)=O)C[C@@]13O[C@H]3[C@@H]2OC(C)=O
Activity (U-87 MG [7]): >50% | Activity (U-251 [28]): >50%
